From patent publication US20150320738A1, “BERBERINE-CONTAINING PHARMACEUTICAL COMPOSITION FOR INHIBITING CANCER STEM CELL GROWTH OR CARCINOMA METASTASIS AND APPLICATION THEREOF” (National Taiwan Normal University, priority 2011, published 2015) come the findings set out here.

Common to all, as to assay type: cell-based
The test system of one assay is NCI-H460 cell line. The assay can be described thus: MTT cell proliferation assay, NCI-H460. As to conditions: Homo sapiens, 48 hours, read-out: half maximal inhibitory concentration (IC50). Here is the method:
(§1) NSCLC cell lines A549, NCI-H460, NCI-H520 and normal lung cell line MRC5 were obtained from Bioresource Collection and Research Center (BCRC, Taiwan). A549 cell line was cultured with F12K medium (21127, GIBCO, Carlsbad, U.S.A.). Both NCI-H460 and NCI-H520 cell lines were cultured with RPMI1640 medium (23400, GIBCO, Carlsbad, U.S.A.). MRC5 cell line was culture with MEM medium (41500, GIBCO, Carlsbad, U.S.A.). All media mentioned above contained 10% FBS (10437, GIBCO, Carlsbad, U.S.A.). All cultures were maintained in an incubator (Thermo forma 370, Waltham, U.S.A.) with 5% CO2 at 37° C. Cells were seeded at 1×10^4 cells per well in a 24-well plate for 16 hours. After that, a sample such as the berberine solutions with different concentrations and the extract of C. chinensis was added into 24-well plate directly, and cultured at 37° C. for 24, 48, and 72 hours, respectively. Thiazolyl blue tetrazolium bromide (MTT, m5655, Sigma, St. Louis, U.S.A.) solution was prepared in a concentration of 5.5 mg/ml with phosphate buffered saline (PBS) filtered by 0.22 μm membrane. The MTT solution (50 μl) was added to the wells of 24-well plates with A549, NCI-H460, NCI-H520, and MRC5 cell lines cultured after 24, 48, and 72 hours. The plates were incubated at 37° C. for 2 hours and then moved out. The media of the wells were removed. […]

The next assay relates to NCI-H520 cell line. Description: MTT cell proliferation assay, NCI-H520. As to conditions: Homo sapiens, 48 hours, read-out: half maximal inhibitory concentration (IC50). Here is the method: as §1
In general terms: Formazan colour is commonly taken as a measure of viable cells.

The subject of a further assay is A549 cells. Description: Side population analysis (Hoechst33342, flow cytometry). As to conditions: A549, dose of IC50, 48 hours. As for the experimental part:
A549 cells were seeded in the number of about 3×10^5 in 10 cm dish to give adequate number of cells for analysis. The cells were treated with the extract of C. chinensis and the berberine solution in the dose of IC50 for 48 hours. Then, the treated cells were harvested by typsinization and centrifugation. The harvested cells were re-suspended in the number of 1×10^6 cells/ml in culture medium containing 2% FBS. Hoechst33342 dye (5 μg/ml, Invitrogen, Carlsbad, U.S.A.) was added with or without reserpine (50 μM, Sigma, St. Louis, U.S.A.) as a blocking reagent. The cells were further incubated at 37° C. for 2 hours under frequently gentle vortex to ensure uniform staining, and then washed cells with PBS. PI staining (20 ng/ml) was used to determine the live/dead cells. In order to set up the fluorescence compensation, single staining and non-staining groups were prepared. The cell samples were filtered with nylon mesh (35 μm) to prevent cell aggregation. PI-positive dead cells were primary excluded to avoid false positive signals. Then, the Hoechst blue and red dot plotting was used to determine the side population. A gate of a side population was defined by the diminishing region of two samples groups, i.e. with or without reserpine. The percentages of the side population were further analyzed by Flowjo software (TreeStar, Ashland, U.S.A.).

The subject of a further assay is A549 cell line. Description: MTT cell proliferation assay, A549. As to conditions: Homo sapiens, 48 hours, read-out: half maximal inhibitory concentration (IC50). Here is the method:
as §1

Turning to `COc1ccc2cc3[n+](cc2c1OC)CCc1cc2c(cc1-3)OCO2` [berberine solution, berberine chloride], the IC50 in the assay with NCI-H460 cell line was roughly 40 µM; in the assay on NCI-H520 cell line, roughly 20 µM; in the assay with A549 cell line it was roughly 7 µM. Besides, the “side population (SP)” value in the assay on A549 cells was “considerably diminished”.
